Data as given in US20240010602A1, “PHENYL UNSATURATED KETONES AS HUMAN FACTOR XIIIA INHIBITORS FOR TREATMENT OF THROMBOEMBOLIC DISEASES” (Xavier University of Louisiana, priority 2022, published 2024).

Biological target: T1, human factor XIIIa (Homo sapiens, UniProt P00488)
T1 sequence (P00488 39-732 limits assumed): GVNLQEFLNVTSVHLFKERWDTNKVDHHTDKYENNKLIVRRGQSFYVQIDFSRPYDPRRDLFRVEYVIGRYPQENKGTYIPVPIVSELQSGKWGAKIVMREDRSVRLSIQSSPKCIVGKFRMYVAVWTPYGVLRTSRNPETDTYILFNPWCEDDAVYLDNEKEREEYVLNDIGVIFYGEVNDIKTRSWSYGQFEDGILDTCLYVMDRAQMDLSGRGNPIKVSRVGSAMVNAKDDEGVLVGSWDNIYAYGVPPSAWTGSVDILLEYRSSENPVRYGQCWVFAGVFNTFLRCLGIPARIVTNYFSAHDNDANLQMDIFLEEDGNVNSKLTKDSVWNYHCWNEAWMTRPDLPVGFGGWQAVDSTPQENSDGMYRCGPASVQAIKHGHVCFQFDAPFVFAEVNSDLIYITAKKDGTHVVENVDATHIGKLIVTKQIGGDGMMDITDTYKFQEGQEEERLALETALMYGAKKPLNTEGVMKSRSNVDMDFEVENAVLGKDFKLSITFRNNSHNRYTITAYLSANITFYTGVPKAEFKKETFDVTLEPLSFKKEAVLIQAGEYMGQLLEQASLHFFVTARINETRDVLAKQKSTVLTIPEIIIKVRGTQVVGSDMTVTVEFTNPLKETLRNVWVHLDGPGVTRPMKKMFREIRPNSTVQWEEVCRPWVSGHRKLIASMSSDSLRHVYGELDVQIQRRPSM
Experiment: bi-substrate, fluorescence-based trans-glutamination assay
Assay type: biochemical
Conditions: pH 7.4, 37° C., 10 min incubation, N,N-dimethylcasein and dansylcadaverine substrates; read-out: FXIIIa IC50
Description: To evaluate the effect of inhibitor on human factor XIIIa (and other transglutaminases), a bi-substrate, fluorescence-based trans-glutamination assay was performed. Generally, 1 μL of inhibitor was diluted with 87 μL of pH 7.4 buffer (50 mM Tris-HCl, 1 mM CaCl2, 100 mM NaCl, and 2 mg/mL N,N-dimethylcasein) and 5 μL dithiothreitol (20 mM) at 37° C. followed by the addition of 2 μL of human factor XIIIa (0.3 μM) and incubation for 10 min. The activity of factor XIIIa was monitored following the addition of 5 μL of dansylcadaverine (2 mM) by measuring the initial rate of increase in fluorescence emission (λEx.=360 nm and λEm.=490 nm). Relative residual factor XIIIa activity at each concentration of the inhibitor was calculated from the ratio of factor XIIIa activity in the presence and absence of the inhibitor. Logistic Eq. 1 was used to fit the concentration dependence of residual […] activity so as to obtain the potency (IC50) and efficacy (ΔY %) of inhibition.
In this equation, Y is the ratio of residual […] activity in the presence of inhibitor to that in its absence, YM and Y0 are the maximum and minimum possible values of the fractional residual factor XIIIa activity, IC50 is the concentration of the inhibitor that leads to 50% inhibition of enzyme activity, and HS is the Hill slope. YM, Y0, IC50, and HS values are determined by nonlinear curve fitting of the data. The data is shown in FIG. 2 (top panel) and Table 1 below: […]

Compound	IC50 [µM]
C=C(CC)C(=O)c1ccc(OCC(=O)O)c(Cl)c1Cl [Formula II, 2-(2,3-dichloro-4-(2-methylenebutanoyl)phenoxy)acetic acid]	105
C=C(CC)C(=O)c1ccc(OCC(=O)OC)c(Cl)c1Cl [Formula III, methyl 2-(2,3-dichloro-4-(2-methylenebutanoyl)phenoxy)acetate]	92
C=C(CC)C(=O)c1ccc(OCC(=O)NC)c(Cl)c1Cl [Formula IV, 2-(2,3-dichloro-4-(2-methylenebutanoyl)phenoxy)-N-methylacetamide]	100
C=C(CC)C(=O)c1ccc(OCC(=O)N(C)C)c(Cl)c1Cl [Formula V, 2-(2,3-dichloro-4-(2-methylenebutanoyl)phenoxy)-N,N-dimethylacetamide]	75
C=C(CC)C(=O)c1c(Cl)cc(OCC(=O)O)cc1Cl [Formula VI, 2-(3,5-dichloro-4-(2-methylenebutanoyl)phenoxy)acetic acid]	51
C=CC(=O)c1ccc(OCC(=O)O)c(Cl)c1Cl [Formula VII, 2-(4-acryloyl-2,3-dichlorophenoxy)acetic acid]	83
C=CC(=O)c1c(Cl)cc(OCC(=O)N(C)C)cc1Cl [Formula VIII, 2-(4-acryloyl-3,5-dichlorophenoxy)-N,N-dimethylacetamide]	24
